# Test results published in patent US9115093B2, “Substituted bicyclic dihydropyrimidinones and their use as inhibitors of neutrophil elastase activity” (Boehringer Ingelheim International GmbH, priority 2013, dated 2015).
# Key:
# [1] = Metabolic stability with human hepatocytes; type: in vitro ADME; conditions: human hepatocyte suspension, 1 μM, scaled with well stirred model
# Description: Assay for the Determination of Metabolic Stability with Human Hepatocytes
# The metabolic degradation of the test compound is assayed in a human hepatocyte suspension. Human hepatocytes (typically cryopreserved) are incubated in an appropriate buffer system (e.g. Dulbecco's modified eagle medium plus 3.5 μg glucagon/500 mL, 2.5 mg insulin/500 mL and 3.75 mg/500 mL hydrocortison) containing 5% species serum. Following a (typically) […] preincubation in an incubator (37° C., 10% CO2), 5 μl of test compound solution (80 μM; from 2 mM stock solution in DMSO diluted 1:25 with medium) are added into 395 μl hepatocyte suspension (cell density in the range 0.25-5*10^6 cells/mL, typically 1*10^6 cells/mL; final concentration of test compound 1 μM, final DMSO concentration […]). The cells are incubated for six hours (incubator, orbital shaker) and samples (25 μl) are taken at 0, 0.5, 1, 2, 4 and 6 hours. Samples are transferred into acetonitrile and pelleted by centrifugation (5 min). The supernatant is transferred to a new 96-deepwell plate, evaporated under nitrogen and resuspended. The decline of parent compound is analyzed by LC-MS/MS.
# The intrinsic clearance CL_[…] is calculated as follows: CL_[…]=Dose/AUC=(C0/CD)/(AUD+clast/k)*1′000/60 (C0: initial concentration in the incubation [μM], CD: cell density of vital cells [10^6 cells/mL], AUD: area under the data [μM*h], clast: concentration of last data point [μM], k: slope of the regression line for parent decline [h^−1])
# The calculated in vitro hepatic intrinsic clearance can be scaled up to the intrinsic in vivo hepatic clearance and used to predict hepatic in vivo blood clearance (CL) by the use of a is liver model (well stirred model): CL_[…]_INVIVO [ml/min/kg]=(CL_[…] [μL/min/10^6 cells]* hepatocellularity[10^6 cells/g liver]*liver factor[g/kg bodyweight])/1′000 CL[ml/min/kg]=CL_[…]_INVIVO [ml/min/kg]*hepatic blood flow [ml/min/kg]/(CL_[…]_INVIVO [ml/min/kg]+hepatic blood flow [ml/min/kg]) Qh[%]=CL[ml/min/kg]/hepatic blood flow[ml/min/kg]) (Hepatocellularity, human: 120*10^6 cells/g liver; lver factor, human: 25.7 g/kg bodyweight; blood flow, human: 21 ml/(min*kg))
# The predicted human hepatic in vivo blood clearance (CL) of selected compounds in the metabolic stability assay described above are listed in Table 16.
# neutrophil elastase = molecular target: T1, neutrophil elastase (Homo sapiens, UniProt P08246); experiment: Human Neutrophil Elastase Assay; type: biochemical; parameters: purchased Calbiochem 324681; conditions: substrate MeOSuc-Ala-Ala-Pro-Val-AMC, pH 7.5, room temperature
# T1 sequence (P08246 30-247 limits assumed): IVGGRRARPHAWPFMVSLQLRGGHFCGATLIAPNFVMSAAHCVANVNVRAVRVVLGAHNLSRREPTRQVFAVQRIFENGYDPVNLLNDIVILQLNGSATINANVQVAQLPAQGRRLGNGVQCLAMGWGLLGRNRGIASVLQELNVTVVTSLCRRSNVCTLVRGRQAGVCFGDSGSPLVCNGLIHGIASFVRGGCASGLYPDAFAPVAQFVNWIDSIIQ
# In short: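 Readout: AMC fluorescence (ex 380, em 460 nm) after 60 min room-temperature reaction with 250 nM MeOSuc-AAPV-AMC, following 15 min compound–enzyme preincubation. Buffer: Tris/NaCl pH 7.5, 0.01% BSA.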
Compound,CL (predicted human hepatic in vivo blood clearance) [1] [mL/min/kg],IC50 (neutrophil elastase) [nM]
"CNC(=O)N1C(=O)N(c2cccc(C(F)(F)F)c2)C2=C(C(=O)CCC2)[C@H]1c1ccc(C#N)cc1S(C)(=O)=O (single isomer, unassigned) [Example 47A]",0,–
"N#Cc1ccc(C2NC(=O)N(c3cccc(C(F)(F)F)c3)C3=C2C(=O)CCC3)nc1 (stereo not shown) [Example 15, 6-(2,5-Dioxo-1-(3-(trifluoromethyl)phenyl)-1,2,3,4,5,6,7,8-octahydroquinazolin-4-yl)-nicotinonitrile]",–,52.1
"CC(C(=O)NCCO)N1C(=O)N(c2cccc(C(F)(F)F)c2)C2=C(C(=O)CCC2)C1c1ccc(C#N)cc1 (stereo not shown) [Example 61, 2-(4-(4-Cyanophenyl)-2,5-dioxo-1-(3-(trifluoromethyl)phenyl)-1,2,5,6,7,8-hexahydroquinazolin-3(4H)-yl)-N-(2-hydroxyethyl)propanamide]",–,6.6
"CCS(=O)(=O)c1cc(C#N)ccc1[C@H]1NC(=O)N(c2cccc(C(F)(F)F)c2)C2=C1C(=O)CCC2 (single isomer, unassigned) [Example 54A]",2,–
"COC(=O)C1CC(=O)C2=C(C1)N(c1cccc(C(F)(F)F)c1)C(=O)NC2c1ccc(C#N)cc1 (stereo not shown) [Example 11, Methyl 4-(4-Cyanophenyl)-2,5-dioxo-1-(3-(trifluoromethyl)phenyl)-1,2,3,4,5,6,7,8-octahydroquinazoline-7-carboxylate]",–,39.4
"COC(=O)CCCS(=O)(=O)N1C(=O)N(c2cccc(C(F)(F)F)c2)C2=C(C(=O)CCC2)C1c1ccc(C#N)cc1 (stereo not shown) [Example 44.10, methyl 4-(4-(4-cyanophenyl)-2,5-dioxo-1-(3-(trifluoromethyl)phenyl)-1,2,5,6,7,8-hexahydroquinazolin-3(4H)-ylsulfonyl)butanoate]",–,5.2
"CS(=O)(=O)c1cc(C#N)ccc1[C@H]1NC(=O)N(c2cccc(C(F)F)c2)C2=C1C(=O)CCC2 (single isomer, unassigned) [Example 19A]",0,–
"N#Cc1ccc(C2NC(=O)N(c3cccc(C(F)(F)F)c3)C3=C2C(=O)CC(C(F)(F)F)C3)cc1 (stereo not shown) [Example 5, 4-(2,5-Dioxo-7-(trifluoromethyl)-1-(3-(trifluoromethyl)phenyl)-1,2,3,4,5,6,7,8-octahydroquinazolin-4-yl)benzonitrile]",–,65.8
"CCNC(=O)N1C(=O)N(c2cccc(C(F)(F)F)c2)C2=C(C(=O)CCC2)C1c1ccc(C#N)cc1C (stereo not shown) [Example 74, 4-(4-Cyano-2-methylphenyl)-N-ethyl-2,5-dioxo-1-(3-(trifluoromethyl)phenyl)-1,2,5,6,7,8-hexahydroquinazoline-3(4H)-carboxamide]",–,< 1
N#Cc1ccc(C2C3=C(CCCC3=O)N(c3cccc(C(F)(F)F)c3)C(=O)N2C(=O)NC2CCOC2)cc1 (stereo not shown) [Example 70.8],–,< 1
C[S+]([O-])CCNC(=O)N1C(=O)N(c2cccc(C(F)(F)F)c2)C2=C(C(=O)CCC2)C1c1ccc(C#N)cc1 (stereo not shown) [Example 39.12],–,< 1
"CS(=O)(=O)c1cc(C#N)ccc1[C@H]1NC(=O)N(c2cccc(C(F)(F)F)c2)C2=C1C(=O)CCC2 (single isomer, unassigned) [Example 18A]",0,–
"CCOC(=O)C(F)N1C(=O)N(c2cccc(C(F)(F)F)c2)C2=C(C(=O)CCC2)C1c1ccc(C#N)cc1 (stereo not shown) [Example 60, Ethyl 2-(4-(4-Cyanophenyl)-2,5-dioxo-1-(3-(trifluoromethyl)phenyl)-1,2,5,6,7,8-hexahydroquinazolin-3(4H)-yl)-2-fluoroacetate]",–,21.6
Cn1ccc(CNC(=O)N2C(=O)N(c3cccc(C(F)(F)F)c3)C3=C(C(=O)CCC3)C2c2ccc(C#N)cc2)n1 (stereo not shown) [Example 39.13],–,1
N#Cc1ccc(C2C3=C(CCCC3=O)N(c3cccc(C(F)(F)F)c3)C(=O)N2C(=O)NCC2CC(O)C2)cc1 (stereo not shown) [Example 70.15],–,< 1
N#Cc1ccc(C2C3=C(CCCC3=O)N(c3cccc(C(F)(F)F)c3)C(=O)N2C(=O)NC2CCCS(=O)(=O)C2)cc1 (stereo not shown) [Example 70.20],–,< 1
CN(C(=O)N1C(=O)N(c2cccc(C(F)(F)F)c2)C2=C(C(=O)CCC2)C1c1ccc(C#N)cc1)c1cnn(C)c1 (stereo not shown) [Example 39.14],–,15
CS(=O)(=O)c1cc(C#N)ccc1C1C2=C(CCCC2=O)N(c2cccc(C(F)(F)F)c2)C(=O)N1C(=O)NCCO (stereo not shown) [Example 47.2],–,< 1
"CN1C(=O)N(c2ccnc(C(F)(F)F)c2)C2=C(C(=O)CCC2)C1c1ccc(C#N)cc1 (stereo not shown) [Example 65, 4-(3-Methyl-2,5-dioxo-1-(2-(trifluoromethyl)pyridin-4-yl)-1,2,3,4,5,6,7,8-octahydroquinazolin-4-yl)benzonitrile]",–,22.6
"N#Cc1ccc(C2NC(=O)N(c3cccc(C(F)(F)F)c3)C3=C2C(=O)CC(C(=O)O)C3)cc1 (stereo not shown) [Example 10, 4-(4-Cyanophenyl)-2,5-dioxo-1-(3-(trifluoromethyl)phenyl)-1,2,3,4,5,6,7,8-octahydroquinazoline-7-carboxylic acid]",–,48.5
N#Cc1ccc(C2C3=C(CCCC3=O)N(c3cccc(C(F)(F)F)c3)C(=O)N2S(=O)(=O)Cc2ccccc2)cc1 (stereo not shown) [Example 44.8],–,9

# The remaining lines, values ahead:
CL (predicted human hepatic in vivo blood clearance) [1] [mL/min/kg],IC50 (neutrophil elastase) [nM],Compound
–,9,"COC(=O)N1C(=O)N(c2cccc(C(F)(F)F)c2)C2=C(C(=O)CCC2)C1c1ccc(C#N)cc1 (stereo not shown) [Example 40, Methyl 4-(4-Cyanophenyl)-2,5-dioxo-1-(3-(trifluoromethyl)phenyl)-1,2,5,6,7,8-hexahydroquinazoline-3(4H)-carboxylate]"
–,< 1,CCNC(=O)N1C(=O)N(c2cccc(C(F)(F)F)c2)C2=C(C(=O)CCC2)C1c1ccc(C#N)cc1 (stereo not shown) [Example 70.1]
–,10.4,CN1C(=O)CCC1CNC(=O)CN1C(=O)N(c2cccc(C(F)(F)F)c2)C2=C(C(=O)CCC2)C1c1ccc(C#N)cc1 (stereo not shown) [Example 36.57]
–,11.8,N#Cc1ccc(C2C3=C(CCCC3=O)N(c3cccc(C(F)(F)F)c3)C(=O)N2CC2CCOCC2)cc1 (stereo not shown) [Example 26]
–,< 1,N#Cc1ccc(C2C3=C(CCCC3=O)N(c3cccc(C(F)(F)F)c3)C(=O)N2C(=O)NC2COC2)cc1 (stereo not shown) [Example 39.5]
–,2.1,N#Cc1ccc(C2C3=C(CCCC3=O)N(c3cccc(C(F)(F)F)c3)C(=O)N2CC(=O)N2CCC3(CC2)CNC(=O)O3)cc1 (stereo not shown) [Example 36.74]
–,10.1,N#Cc1ccc(C2C3=C(CCCC3=O)N(c3cccc(C(F)(F)F)c3)C(=O)N2CC(=O)NCC2CCCO2)cc1 (stereo not shown) [Example 36.24]
–,6.6,Cn1nccc1CN1C(=O)N(c2cccc(C(F)(F)F)c2)C2=C(C(=O)CCC2)C1c1ccc(C#N)cc1 (stereo not shown) [Example 24.1]
–,7.9,N#Cc1ccc(C2C3=C(CCCC3=O)N(c3cccc(C(F)(F)F)c3)C(=O)N2CC(=O)NCC2CCC(=O)N2)cc1 (stereo not shown) [Example 36.36]
–,11.4,N#Cc1ccc(C2C3=C(CCCC3=O)N(c3cccc(C(F)(F)F)c3)C(=O)N2CC(=O)N[C@H]2CCNC2=O)cc1 (stereo partly shown) [Example 36.20]
–,12,"N#Cc1ccc(C2C3=C(CCCC3=O)N(c3cccc(C(F)(F)F)c3)C(=O)N2CC(=O)O)cc1 (stereo not shown) [Example 32, 2-(4-(4-Cyanophenyl)-2,5-dioxo-1-(3-(trifluoromethyl)phenyl)-1,2,5,6,7,8-hexahydroquinazolin-3(4H)-yl)acetic acid]"
–,1.7,N#Cc1ccc(C2C3=C(CCCC3=O)N(c3cccc(C(F)(F)F)c3)C(=O)N2CC(=O)N2CCn3nccc3C2)cc1 (stereo not shown) [Example 36.51]
–,10.7,N#Cc1ccc(C2C3=C(CCCC3=O)N(c3cccc(C(F)(F)F)c3)C(=O)N2CC(=O)N2CCC3(CC2)CC3)cc1 (stereo not shown) [Example 36.34]
